Bounds are passed on as bounds.

We go through 16 molecules from ChEMBL document CHEMBL1139720, “Synthesis and antiproliferative activity of (2R,3R)-disubstituted tetrahydropyrans” (2006).

Holding throughout (type): functional
One test has as its system SW1573. As to the kind of experiment: Antiproliferative activity against human SW1573 cells after 48 hrs by SRB assay. The following applies: SW1573, 48 h. Background: The SRB assay estimates cell density from bound dye.
Another test concerns A2780. The test can be described thus: Antiproliferative activity against human A2780 cells after 48 hrs by SRB assay. The following applies: A2780, 48 h.
The next test concerns WiDr. As to the kind of experiment: Antiproliferative activity against human WiDr cells after 48 hrs by SRB assay.

As usually defined, the GI50 is the concentration at which growth is held to half of that of the control. A low value points to more potent growth inhibition. Turning to `CC(C)(C)[Si](C)(C)O[C@@H]1CCCO[C@@H]1CO`, the GI50 in the test with SW1573, in the test on A2780 and in the test with WiDr was more than 100 µM throughout.

What is called TGI is the concentration giving total growth inhibition. For `O=C1C=C[C@H]2OCCC[C@H]2O1`, the GI50 in the test on SW1573 amounted to 5.7 µM; with A2780, 8.3 µM; in the test on WiDr, 39 µM. In the test with A2780, net growth stopped (TGI) at 35 µM.

As to `C=C[C@H]1OCCC[C@H]1O[Si](C)(C)C(C)(C)C`, the results for the 50% growth inhibitory concentration (GI50) with SW1573, in the test on A2780 and in the test with WiDr were more than 100 µM, 86 µM and more than 100 µM, respectively.

For `O=C(C[C@H]1OCCC[C@H]1O)OCc1ccccc1`, the concentration for 50% growth inhibition (GI50) in the test with SW1573, in the test on A2780 and in the test with WiDr was more than 100 µM throughout.

Consider `O=C(/C=C/[C@H]1OCCC[C@H]1O)OCc1ccccc1`, for which the GI50 in the test on SW1573, in the test with A2780 and with WiDr was more than 100 µM throughout.

In the case of `COC(=O)/C=C/[C@H]1OCCC[C@H]1O`, the GI50 in the test on SW1573, with A2780 and with WiDr was more than 100 µM throughout.

For the molecule `CC(C)(C)[Si](C)(C)O[C@@H]1CCCO[C@@H]1/C=C\CO`, the concentration for 50% growth inhibition (GI50) in the test on SW1573, in the test with A2780 and in the test with WiDr was more than 100 µM each time.

What is called LC50 is the concentration that kills 50% of the test population. High values mean lower toxicity, low ones greater toxicity. For the molecule `COC(=O)/C=C\[C@H]1OCCC[C@H]1O[Si](C)(C)C(C)(C)C`, the GI50 in the test on SW1573 was 6.3 µM; in the test on A2780 it was 7.3 µM; with WiDr it was 38 µM. Further, the TGI in the test on SW1573 stood at 68 µM; in the test with A2780, 39 µM. Besides, the LC50 in the test on A2780 was found to be 86 µM.

Regarding `COC(=O)/C=C/[C@H]1OCCC[C@@H]1O[Si](C)(C)C(C)(C)C`, the GI50 is 47 µM in the test on SW1573, 28 µM in the test on A2780 and 84 µM in the test on WiDr.

Take `CC(C)(C)[Si](C)(C)O[C@@H]1CCCO[C@@H]1/C=C/C(=O)OCc1ccccc1`: the figures for the GI50 in the test with SW1573, with A2780 and with WiDr were 37 µM, 32 µM and 90 µM, respectively.

As for `CC(C)(C)[Si](C)(C)O[C@@H]1CCCO[C@@H]1CC(=O)OCc1ccccc1`, the values for the GI50 with SW1573, in the test with A2780 and with WiDr were 30 µM, 23 µM and 19 µM, respectively.

On to `COC(=O)/C=C/[C@H]1OCCC[C@H]1O[Si](C)(C)C(C)(C)C`, for which the GI50 in the test with SW1573 was more than 100 µM; in the test on A2780 it was 98 µM; in the test on WiDr it was more than 100 µM.

Turning to `CC(C)(C)[Si](C)(C)O[C@@H]1CCCO[C@@H]1/C=C/C(=O)O`, the GI50 in the test on SW1573, in the test with A2780 and with WiDr was more than 100 µM each time.

With `O=C1C[C@H]2OCCC[C@H]2O1`, the GI50 in the test with SW1573, in the test with A2780 and in the test on WiDr was more than 100 µM in each case.

On to `CC(C)(C)[Si](C)(C)OC[C@H]1OCCC[C@H]1O[Si](C)(C)C(C)(C)C`, for which the GI50 with SW1573, in the test with A2780 and in the test with WiDr was more than 100 µM each time.

On to `CC(C)(C)[Si](C)(C)O[C@@H]1CCCO[C@@H]1/C=C\C(=O)OCc1ccccc1`, for which the GI50 in the test with SW1573 was 26 µM; in the test on A2780, 29 µM; with WiDr, 20 µM. For the same molecule, the results for the TGI in the test on SW1573, in the test on A2780 and with WiDr were 92 µM, 77 µM and 64 µM, respectively.
